Assay results reported in publication PMC11487561 (ACS Chemical Neuroscience, 2024).

Tests used:
Tachykinin NK1 = Tachykinin NK1 (Homo sapiens, UniProt P25103); assay: Lead Profiling Screen – Eurofins Panlabs; assay type: binding; conditions: read-out: % inh at 10 μM
[1] = molecular target: Transporter, Norepinephrine (NET) (Homo sapiens, UniProt P23975); assay: Lead Profiling Screen – Eurofins Panlabs; assay type: binding; conditions: read-out: % inh at 10 μM
Prostanoid EP4 = Prostanoid EP4 (Homo sapiens, UniProt P35408); assay: Lead Profiling Screen – Eurofins Panlabs; assay type: binding; conditions: read-out: % inh at 10 μM
Adrenergic α1A = molecular target: T1, Adrenergic α1A (Rattus norvegicus, UniProt P43140); assay: Lead Profiling Screen – Eurofins Panlabs; assay type: binding; conditions: read-out: % inh at 10 μM
T1 construct: Eurofins Panlabs

human M3 = human M3 (Homo sapiens, UniProt P20309); assay: Calcium mobilization assay, muscarinic selectivity; assay type: cell-based
CYP 1A2 = molecular target: T2, CYP 1A2 (Homo sapiens, UniProt P05177); assay: P450 inhibition in pooled human liver microsomes; assay type: in vitro ADME; conditions: pooled HLM, NADPH, CYP-specific probe substrates
T2 construct: from tissue; host or cells: pooled human liver microsomes (according to the earlier reading)

In vivo dog iv/po PK = assay: In vivo dog iv/po PK
Method: Intravenous pharmacokinetics and plasma-brain level determination (IV PK PBL) VU6016235 […]
For dog PK, VU6016235 was formulated in 10% (2-Hydroxypropyl)-beta-cyclodextrin (HPbCD) at a concentration of 0.5 mg/ml and administered as a single dose of 0.5 mg/kg to male beagles (1 ml/kg, n=3).
Blood samples were collected serially from a surgically implanted carotid artery catheter in each animal over multiple post-administration time points (0.033, 0.117, 0.25, 0.5, 1, 2, 4, 7, and 24 hours) into chilled, K2EDTA anticoagulant-fortified tubes and immediately placed on wet ice. […]
over multiple post-administration time points (0.25, 0.5, 1, 2, 4, 7, and 24 hours) into chilled, K2EDTA anticoagulant-fortified tubes and immediately placed on wet ice. The blood samples were then centrifuged (1700 rcf, 5 minutes, 4 °C) in order to obtain plasma samples, which were stored at -80 °C until analysis […]
Samples preparation for bioanalysis
Plasma samples from the in-life phase of the study were thawed at ambient temperature (benchtop), and then aliquots (20 µL per sample) were transferred to a 96-shallow-well (V-bottom) plate. Matrix-matched quality control (QC) samples and a standard curve of […] (1 mg/mL DMSO stock solution) were prepared in blank rat plasma (K2EDTA-treated) or blank brain homogenate via serial dilution and transferred (20 µL each) to the plate along with multiple blank plasma and brain homogenate samples. Acetonitrile (120 µL) containing IS (10 nM carbamazepine) was added to each well of the plate to precipitate protein. The plate was then centrifuged (4000 rcf, 5 minutes, ambient temperature), and resulting supernatants (60 µL each) were transferred to a new 96-shallow-well (V-bottom) plate containing an equal volume (60 µL per well) of water (Milli-Q purified). […]
The plasma standard curve and QCs were used for compounds quantitation in brain.
Binding in plasma from rat and human.
Determination of compounds’ fraction unbound (f u) in plasma from rat and human was conducted in vitro via equilibrium dialysis using HTDialysis membrane plates. Dialysis membranes (four paired strips per HTD assay) were hydrated as described by the manufacturer and inserted into the HTD plate, which was assembled and prepared for sample addition by the dispensing of blank buffer (DPBS, 100 µL/well) into the ‘top half’ of each membrane-split well. Each compound was diluted into plasma from each species (5 µM final concentration), which was aliquoted in triplicate to the ‘bottom half’ of the prepared HTD plate wells. The HTD plate was sealed and incubated for 6 hours at 37 °C. Following incubation, each well (both top and bottom halves) were transferred (20 µL) to the corresponding wells of a 96-shallow-well (V-bottom) plate. The daughter plates were then matrix-matched (buffer side wells received equal volume of plasma, and plasma side wells received equal volume of buffer), and extraction solution (120 µL; acetonitrile containing 50 nM carbamazepine as IS) was added to all wells of both daughter plates to precipitate protein and extract test article. The plates were then sealed and centrifuged (3500 rcf) for 10 minutes at ambient temperature. Supernatant (60 µL) from each well of the daughter plates was then transferred to the corresponding wells of new daughter plates (96-shallow-well, V bottom) containing water (Milli-Q, 60 µL/well), and the plates were sealed in preparation for LC-MS/MS analysis (see below). fu was calculated as (analyte to IS MS peak area ratio from Trans-buffer side) / (analyte to IS MS peak area ratio from Cis-plasma side). Mean values for each species were calculated from 3 replicates.

GABAA, Muscimol, Central = assay: Lead Profiling Screen – Eurofins Panlabs; assay type: binding, rat
CYP 3A4 = molecular target: T3, CYP 3A4 (Homo sapiens, UniProt P08684); assay: P450 inhibition in pooled human liver microsomes; assay type: in vitro ADME; conditions: pooled HLM, NADPH, CYP-specific probe substrates
T3 construct: from tissue; host or cells: pooled human liver microsomes (according to the earlier reading)

Glutamate, NMDA, Glycine = Glutamate, NMDA, Glycine (Rattus norvegicus, UniProt P35439); assay: Lead Profiling Screen – Eurofins Panlabs; assay type: binding; conditions: read-out: % inh at 10 μM
Dopamine D4.2 = assay: Lead Profiling Screen – Eurofins Panlabs; assay type: binding, human
Calcium Channel N-Type = molecular target: T4, Calcium Channel N-Type (Rattus norvegicus, UniProt Q02294); assay: Lead Profiling Screen – Eurofins Panlabs; assay type: binding; conditions: read-out: % inh at 10 μM
T4 construct: Eurofins Panlabs (contract screen)

human M5 = human M5 (Homo sapiens, UniProt P08912); assay: Calcium mobilization assay, muscarinic selectivity; assay type: cell-based
[2] = male, plasma, dog (beagle), iv 0.5 mg/kg
[3] = male, plasma, dog (beagle), po 1.0 mg/kg, fasted

Chain of human M3 (P20309 whole entry): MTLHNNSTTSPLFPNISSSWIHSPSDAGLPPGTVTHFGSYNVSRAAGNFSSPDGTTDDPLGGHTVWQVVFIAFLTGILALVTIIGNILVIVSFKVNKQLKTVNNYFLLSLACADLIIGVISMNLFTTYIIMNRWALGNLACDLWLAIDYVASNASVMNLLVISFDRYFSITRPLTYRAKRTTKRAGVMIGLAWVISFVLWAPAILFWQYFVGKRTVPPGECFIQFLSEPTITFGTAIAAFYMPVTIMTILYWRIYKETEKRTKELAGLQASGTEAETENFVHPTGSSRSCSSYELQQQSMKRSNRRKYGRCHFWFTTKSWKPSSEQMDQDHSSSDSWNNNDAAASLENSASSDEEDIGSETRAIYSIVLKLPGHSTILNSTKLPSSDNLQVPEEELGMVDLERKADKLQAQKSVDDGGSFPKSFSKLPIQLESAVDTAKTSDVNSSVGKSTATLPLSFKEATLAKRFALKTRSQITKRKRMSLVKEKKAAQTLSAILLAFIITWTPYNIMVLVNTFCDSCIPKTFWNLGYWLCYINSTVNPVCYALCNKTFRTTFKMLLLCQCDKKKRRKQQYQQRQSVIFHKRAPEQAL
Chain of human M5 (P08912 whole entry): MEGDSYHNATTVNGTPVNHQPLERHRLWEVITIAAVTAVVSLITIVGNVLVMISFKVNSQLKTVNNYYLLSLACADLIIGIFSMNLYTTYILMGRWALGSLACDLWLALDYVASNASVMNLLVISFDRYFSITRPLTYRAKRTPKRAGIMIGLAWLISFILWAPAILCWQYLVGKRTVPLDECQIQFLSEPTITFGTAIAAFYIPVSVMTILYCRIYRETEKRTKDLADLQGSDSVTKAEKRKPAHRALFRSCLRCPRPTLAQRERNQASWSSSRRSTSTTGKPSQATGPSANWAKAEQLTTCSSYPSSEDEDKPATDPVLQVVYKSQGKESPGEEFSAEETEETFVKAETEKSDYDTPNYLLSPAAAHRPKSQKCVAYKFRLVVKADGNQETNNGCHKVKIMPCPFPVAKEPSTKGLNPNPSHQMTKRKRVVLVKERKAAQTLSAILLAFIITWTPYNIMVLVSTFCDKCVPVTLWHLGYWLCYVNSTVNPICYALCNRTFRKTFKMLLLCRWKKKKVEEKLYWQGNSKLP
Chain of Tachykinin NK1 (P25103 whole entry): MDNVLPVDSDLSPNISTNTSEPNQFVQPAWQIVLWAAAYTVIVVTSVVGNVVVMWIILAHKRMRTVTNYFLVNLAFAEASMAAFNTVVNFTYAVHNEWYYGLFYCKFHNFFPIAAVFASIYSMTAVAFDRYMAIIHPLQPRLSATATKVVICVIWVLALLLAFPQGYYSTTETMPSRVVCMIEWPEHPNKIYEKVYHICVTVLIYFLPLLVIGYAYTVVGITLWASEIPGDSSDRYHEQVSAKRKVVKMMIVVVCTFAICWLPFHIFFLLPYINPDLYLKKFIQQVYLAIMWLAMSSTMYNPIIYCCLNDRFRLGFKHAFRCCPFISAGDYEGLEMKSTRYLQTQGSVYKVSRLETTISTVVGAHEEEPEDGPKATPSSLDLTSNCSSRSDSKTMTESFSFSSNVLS
Chain of Transporter, Norepinephrine (NET) (P23975 whole entry): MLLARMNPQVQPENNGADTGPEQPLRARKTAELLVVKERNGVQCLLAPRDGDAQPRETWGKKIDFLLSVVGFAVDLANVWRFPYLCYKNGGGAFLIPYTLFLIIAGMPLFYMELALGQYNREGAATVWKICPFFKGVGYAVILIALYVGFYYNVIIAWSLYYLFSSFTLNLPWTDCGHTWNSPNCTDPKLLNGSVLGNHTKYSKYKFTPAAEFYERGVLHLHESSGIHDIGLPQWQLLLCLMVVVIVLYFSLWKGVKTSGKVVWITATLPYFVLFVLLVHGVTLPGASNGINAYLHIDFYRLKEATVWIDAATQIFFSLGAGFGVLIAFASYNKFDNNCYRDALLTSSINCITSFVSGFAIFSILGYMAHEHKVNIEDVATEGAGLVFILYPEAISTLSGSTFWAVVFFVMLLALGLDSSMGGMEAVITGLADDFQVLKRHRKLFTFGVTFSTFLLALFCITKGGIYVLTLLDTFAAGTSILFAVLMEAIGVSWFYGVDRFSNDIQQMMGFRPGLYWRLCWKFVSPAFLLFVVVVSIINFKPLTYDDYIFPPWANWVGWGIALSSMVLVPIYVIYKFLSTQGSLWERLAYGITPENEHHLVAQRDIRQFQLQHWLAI
T1 sequence (P43140 whole entry): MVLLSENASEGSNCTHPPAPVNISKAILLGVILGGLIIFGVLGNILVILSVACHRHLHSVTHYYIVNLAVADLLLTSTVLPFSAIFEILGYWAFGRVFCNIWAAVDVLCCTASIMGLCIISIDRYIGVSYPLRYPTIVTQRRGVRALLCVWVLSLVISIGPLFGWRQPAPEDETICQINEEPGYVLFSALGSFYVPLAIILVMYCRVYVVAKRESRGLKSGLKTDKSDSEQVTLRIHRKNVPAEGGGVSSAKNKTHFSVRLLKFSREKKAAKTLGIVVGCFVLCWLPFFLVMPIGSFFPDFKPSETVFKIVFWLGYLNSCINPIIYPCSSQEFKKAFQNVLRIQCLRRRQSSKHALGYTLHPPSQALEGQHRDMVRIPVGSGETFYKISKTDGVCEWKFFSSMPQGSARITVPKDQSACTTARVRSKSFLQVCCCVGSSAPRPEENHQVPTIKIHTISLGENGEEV
Chain of Prostanoid EP4 (P35408 whole entry): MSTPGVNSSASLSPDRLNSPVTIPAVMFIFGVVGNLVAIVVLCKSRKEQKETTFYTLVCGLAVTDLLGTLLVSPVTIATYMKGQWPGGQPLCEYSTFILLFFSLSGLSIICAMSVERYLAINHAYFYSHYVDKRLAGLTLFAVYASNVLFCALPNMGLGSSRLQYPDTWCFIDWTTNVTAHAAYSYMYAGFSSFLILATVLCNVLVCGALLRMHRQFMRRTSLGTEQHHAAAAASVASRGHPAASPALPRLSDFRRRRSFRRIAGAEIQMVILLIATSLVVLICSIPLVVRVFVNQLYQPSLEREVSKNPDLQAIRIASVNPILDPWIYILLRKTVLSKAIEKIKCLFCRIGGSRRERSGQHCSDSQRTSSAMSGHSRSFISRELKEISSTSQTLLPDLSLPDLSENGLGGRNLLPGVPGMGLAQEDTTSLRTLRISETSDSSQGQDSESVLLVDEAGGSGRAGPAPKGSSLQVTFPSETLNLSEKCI
Chain of Glutamate, NMDA, Glycine (P35439 394-800 limits assumed): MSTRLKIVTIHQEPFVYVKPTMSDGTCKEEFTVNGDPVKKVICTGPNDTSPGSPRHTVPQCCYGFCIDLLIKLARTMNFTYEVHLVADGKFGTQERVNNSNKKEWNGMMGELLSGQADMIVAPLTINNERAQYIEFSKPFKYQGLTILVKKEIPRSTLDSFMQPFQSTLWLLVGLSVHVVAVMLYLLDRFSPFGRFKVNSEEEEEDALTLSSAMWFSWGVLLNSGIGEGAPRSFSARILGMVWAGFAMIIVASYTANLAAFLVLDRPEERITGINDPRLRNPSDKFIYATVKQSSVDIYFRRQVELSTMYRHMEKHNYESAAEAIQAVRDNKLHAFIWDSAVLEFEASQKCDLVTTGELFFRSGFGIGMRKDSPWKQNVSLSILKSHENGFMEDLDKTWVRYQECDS
T3 sequence (P08684 whole entry): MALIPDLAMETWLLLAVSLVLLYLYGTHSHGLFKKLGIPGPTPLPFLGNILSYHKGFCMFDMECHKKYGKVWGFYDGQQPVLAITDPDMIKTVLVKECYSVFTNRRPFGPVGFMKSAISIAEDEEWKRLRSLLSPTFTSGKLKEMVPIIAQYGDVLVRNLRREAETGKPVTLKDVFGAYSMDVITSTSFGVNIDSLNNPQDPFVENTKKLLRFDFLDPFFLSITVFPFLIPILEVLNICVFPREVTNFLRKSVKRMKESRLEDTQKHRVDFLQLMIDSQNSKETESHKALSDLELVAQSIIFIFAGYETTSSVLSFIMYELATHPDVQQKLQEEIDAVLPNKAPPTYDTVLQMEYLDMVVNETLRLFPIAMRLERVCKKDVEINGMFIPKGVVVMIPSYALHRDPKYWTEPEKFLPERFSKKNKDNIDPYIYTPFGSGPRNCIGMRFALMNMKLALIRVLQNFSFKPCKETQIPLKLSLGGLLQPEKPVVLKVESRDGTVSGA
T2 sequence (P05177 whole entry): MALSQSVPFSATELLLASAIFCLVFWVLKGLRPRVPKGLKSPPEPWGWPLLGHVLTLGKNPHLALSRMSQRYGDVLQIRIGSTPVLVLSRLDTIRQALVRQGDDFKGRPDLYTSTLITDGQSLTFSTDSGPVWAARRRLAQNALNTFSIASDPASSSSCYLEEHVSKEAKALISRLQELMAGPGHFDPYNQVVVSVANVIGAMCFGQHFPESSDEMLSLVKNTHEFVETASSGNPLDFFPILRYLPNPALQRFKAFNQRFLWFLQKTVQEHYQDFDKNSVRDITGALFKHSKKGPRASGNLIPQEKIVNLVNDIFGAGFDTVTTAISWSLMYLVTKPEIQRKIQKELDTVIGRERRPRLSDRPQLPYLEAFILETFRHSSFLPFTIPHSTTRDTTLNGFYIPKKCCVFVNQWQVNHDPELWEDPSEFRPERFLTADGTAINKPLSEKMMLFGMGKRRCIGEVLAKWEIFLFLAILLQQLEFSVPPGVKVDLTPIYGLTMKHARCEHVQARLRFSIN

Question: With Cc1nc(C)c2c(n1)sc1c(NCc3ccc(C(C)(C)O)cc3)nccc12 [22g] as the molecule, how does the inhibition at 10 µM (Tachykinin NK1) read?
Answer: 8%

Question: What about the inhibition at 10 µM [1] of the same molecule?
Answer: 26%

Question: And the inhibition at 10 µM (Prostanoid EP4)?
Answer: 16%

Question: And the inhibition at 10 µM (Adrenergic α1A)?
Answer: 3%

Question: What about the “human M3 %Ach Max” value (human M3) of the same molecule?
Answer: inactive

Question: What about the “human M3 EC50” value (human M3) of the same molecule?
Answer: inactive

Question: And the IC50 (CYP 1A2)?
Answer: 23 µM

Question: And the “plasma clearance as % hepatic blood flow” value (In vivo dog iv/po PK; dog)?
Answer: ~78 % hepatic blood flow

Question: And the CLp (In vivo dog iv/po PK; dog (beagle), iv 0.5 mg/kg, listed as VU6016235, 0.5 mg/kg)?
Answer: 23.8 mL/min/kg

Question: And the clearance (In vivo dog iv/po PK; male, beagle, dog, plasma, iv, 0.5 mg/kg, dog (beagle), iv 0.5 mg/kg, read-out: CLp)?
Answer: ~24 mL/min/kg

Question: What about the MRT (In vivo dog iv/po PK; [2]) of the same molecule?
Answer: 1.6 h

Question: What about the half-life (In vivo dog iv/po PK; [2]) of the same molecule?
Answer: 2.4 h

Question: What about the Vd (In vivo dog iv/po PK; male, plasma, dog (beagle), iv 0.5 mg/kg, read-out: Vss) of the same molecule?
Answer: 2.3 L/kg

Question: What about the AUC(0-inf) (In vivo dog iv/po PK; [3]) of the same molecule?
Answer: 200 ng·h/mL

Question: What about the Cmax (In vivo dog iv/po PK; [3]) of the same molecule?
Answer: 62.4 ng/mL

Question: And the Tmax (In vivo dog iv/po PK; [3])?
Answer: 0.83 h

Question: And the bioavailability (In vivo dog iv/po PK; [3])?
Answer: 27.5%

Question: And the “% inh at 10 μM” value (GABAA, Muscimol, Central)?
Answer: 1%

Question: And the IC50 (CYP 3A4)?
Answer: 17 µM

Question: What about the inhibition at 10 µM (Glutamate, NMDA, Glycine) of the same molecule?
Answer: -9%

Question: And the “% inh at 10 μM” value (Dopamine D4.2)?
Answer: 4%

Question: What about the inhibition at 10 µM (Calcium Channel N-Type) of the same molecule?
Answer: 2%

Question: And the “human M5 %Ach Max” value (human M5)?
Answer: inactive

Question: What about the “human M5 EC50” value (human M5) of the same molecule?
Answer: inactive
